Reference: patent US20250145633A1, “SUBSTITUTED FURANOPYRIMIDINE COMPOUNDS AS PDE1 INHIBITORS” (Dart NeuroScience, LLC, priority 2017, published 2025)

Biological target: human PDE1B enzyme (Homo sapiens (Human), UniProt Q01064)
Experiment: IMAP TR-FRET PDE1B enzymatic assay
Format: biochemical
Details: negative log of half-maximal molar inhibitory concentration; 200 nM FAM-cAMP; values given as bins
Procedure, shortened: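 Full-length GST-tagged human PDE1B (250 pg/well) in IMAP BSA buffer with 10 U/ml calmodulin and 2.5 mM CaCl2; compound pre-incubated 5 min at room temperature, then 200 nM (final) FAM-cAMP for 30 min. IMAP binding reagent/Tb added, 1 h; TR-FRET 520/490 ratio read. IC50 from sigmoidal dose-response fit.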

Compound | PDE1b (pIC50)
COC1(c2ccccc2)CN(C(=O)c2c(C)oc3ncnc(NC4(C)CC4)c23)C1 [Example 103, 5-(3-Methoxy-3-phenylazetidine-1-carbonyl)-6-methyl-N-(1-methylcyclopropyl)furo[2,3-d]pyrimidin-4-amine] | >8
Cc1cc(C(F)(F)F)nc(CNC(=O)c2c(C)oc3ncnc(NC4(C)CC4)c23)n1 [Example 649, 6-Methyl-N-{[4-methyl-6-(trifluoromethyl)pyrimidin-2-yl]methyl}-4-[(1-methylcyclopropyl)amino]furo[2,3-d]pyrimidine-5-carboxamide] | >8
Cc1oc2ncnc(NC3(C)CC3)c2c1C(=O)N1CCC(c2ccc(C#N)cc2)CC1 [Example 385, 4-(1-{6-Methyl-4-[(1-methylcyclopropyl)amino]furo[2,3-d]pyrimidine-5-carbonyl}piperidin-4-yl)benzonitrile] | >8

Same assay, conditions: negative log of half-maximal molar inhibitory concentration; 200 nM FAM-cAMP; values given as bins; read-out: PDE1b (pIC50) (converted)

Compound | IC50
Cc1oc2ncnc(NC3(C)CC3)c2c1C(=O)NC1(C#N)CCC1 [Example 91, N-(1-Cyanocyclobutyl)-6-methyl-4-[(1-methylcyclopropyl)amino]furo[2,3-d]pyrimidine-5-carboxamide] | 0.01 to 0.1 µM
Cc1oc2ncnc(NC3(C)CC3)c2c1C(=O)NCC1COC1 [Example 90, 6-Methyl-4-[(1-methylcyclopropyl)amino]-N-(oxetan-3-ylmethyl)furo[2,3-d]pyrimidine-5-carboxamide] | 0.1 to 1 µM
Cc1oc2ncnc(NC3(C)CC3)c2c1C(=O)N1CCc2c(Cl)ncnc2C1 [Example 6, 5-{4-chloro-5H,6H,7H,8H-pyrido[3,4-d]pyrimidine-7-carbonyl}-6-methyl-N-(1-methylcyclopropyl)furo[2,3-d]pyrimidin-4-amine] | 0.01 to 0.1 µM
Cc1oc2ncnc(NC3(C)CC3)c2c1C(=O)NC(C)c1ccc(F)cc1 (stereo in doubt) [Example 484, N-[(1R)-1-(4-Fluorophenyl)ethyl]-6-methyl-4-[(1-methylcyclopropyl)amino]furo[2,3-d]pyrimidine-5-carboxamide] | 0.01 to 0.1 µM
Cc1oc2ncnc(NC3(C)CC3)c2c1C(=O)NCc1ccncn1 [Example 652, 6-Methyl-4-[(1-methylcyclopropyl)amino]-N-(pyrimidin-4-ylmethyl)furo[2,3-d]pyrimidine-5-carboxamide] | 0.01 to 0.1 µM
Cc1oc2ncnc(NC3(C)CC3)c2c1C(=O)N1CCCC2(C1)C(=O)N(C)c1ccccc12 (stereo not drawn) [Example 376, 1-Methyl-1′-{6-methyl-4-[(1-methylcyclopropyl)amino]furo[2,3-d]pyrimidine-5-carbonyl}-1,2-dihydrospiro[indole-3,3′-piperidine]-2-one] | 0.1 to 1 µM
Cc1oc2ncnc(NC3(C)CC3)c2c1C(=O)NCc1ccccn1 [Example 76, 6-Methyl-4-[(1-methylcyclopropyl)amino]-N-(pyridin-2-ylmethyl)furo[2,3-d]pyrimidine-5-carboxamide] | 0.01 to 0.1 µM
Cc1oc2ncnc(NC3(C)CC3)c2c1C(=O)N1CCOC2(CCc3ccccc32)C1 (stereo not drawn) [Example 378, 5-({2,3-Dihydrospiro[indene-1,2′-morpholine]-4′-yl}carbonyl)-6-methyl-N-(1-methylcyclopropyl)furo[2,3-d]pyrimidin-4-amine] | 0.1 to 1 µM
Cc1oc2ncnc(NC3(C)CC3)c2c1C(=O)N1C[C@@H]2[C@H](C1)[C@H]2c1ccc(F)cc1 [Example 279, 5-[(1R,5S,6S)-6-(4-Fluorophenyl)-3-azabicyclo[3.1.0]hexane-3-carbonyl]-6-methyl-N-(1-methylcyclopropyl)furo[2,3-d]pyrimidin-4-amine] | 0.01 to 0.1 µM
Cc1ncccc1NC(=O)c1c(C)oc2ncnc(NC3(C)CC3)c12 [Example 181, 6-Methyl-4-[(1-methylcyclopropyl)amino]-N-(2-methylpyridin-3-yl)furo[2,3-d]pyrimidine-5-carboxamide] | 0.01 to 0.1 µM
Cc1oc2ncnc(NC3(C)CC3)c2c1C(=O)NCc1nccc(C(F)(F)F)n1 [Example 680, 6-Methyl-4-[(1-methylcyclopropyl)amino]-N-{[4-(trifluoromethyl)pyrimidin-2-yl]methyl}furo[2,3-d]pyrimidine-5-carboxamide] | 0.01 to 0.1 µM
COc1ccc2[nH]c(CNC(=O)c3c(C)oc4ncnc(NC5(C)CC5)c34)cc2c1 [Example 570, N-[(5-Methoxy-1H-indol-2-yl)methyl]-6-methyl-4-[(1-methylcyclopropyl)amino]furo[2,3-d]pyrimidine-5-carboxamide] | 0.01 to 0.1 µM
Cc1oc2ncnc(NC3(C)CC3)c2c1C(=O)N1CCc2c(nc(C(C)C)[nH]c2=O)C1 [Example 22, 2-Isopropyl-7-(6-methyl-4-((1-methylcyclopropyl)amino)furo[2,3-d]pyrimidine-5-carbonyl)-5,6,7,8-tetrahydropyrido[3,4-d]pyrimidin-4(3H)-one] | 0.01 to 0.1 µM
Cc1oc2ncnc(NC3(C)CC3)c2c1C(=O)NC1(C)CCOCC1 [Example 109, 6-Methyl-4-[(1-methylcyclopropyl)amino]-N-(4-methyloxan-4-yl)furo[2,3-d]pyrimidine-5-carboxamide] | 0.01 to 0.1 µM
Cc1oc2ncnc(NC3(C)CC3)c2c1C(=O)Nc1ccc2c(cnn2C)c1 [Example 262, 6-Methyl-N-(1-methyl-1H-indazol-5-yl)-4-[(1-methylcyclopropyl)amino]furo[2,3-d]pyrimidine-5-carboxamide] | 0.01 to 0.1 µM
Cc1cc(CNC(=O)c2c(C)oc3ncnc(NC4(C)CC4)c23)on1 [Example 319, 6-Methyl-N-[(3-methyl-1,2-oxazol-5-yl)methyl]-4-[(1-methylcyclopropyl)amino]furo[2,3-d]pyrimidine-5-carboxamide] | 0.01 to 0.1 µM
COc1ccc([C@H](C)NC(=O)c2c(C)oc3ncnc(NC4(C)CC4)c23)c(F)c1 [Example 305, N-[(1S)-1-(2-Fluoro-4-methoxyphenyl)ethyl]-6-methyl-4-[(1-methylcyclopropyl)amino]furo[2,3-d]pyrimidine-5-carboxamide] | 0.01 to 0.1 µM
Cc1oc2ncnc(NC3(C)CC3)c2c1C(=O)N1CCN(c2nc(Cl)ncc2F)CC1 [Example 362, 5-[4-(2-Chloro-5-fluoropyrimidin-4-yl)piperazine-1-carbonyl]-6-methyl-N-(1-methylcyclopropyl)furo[2,3-d]pyrimidin-4-amine] | 0.01 to 0.1 µM
COc1ccc(N2CCCN(C(=O)c3c(C)oc4ncnc(NC5(C)CC5)c34)CC2)cc1 [Example 159, 5-[4-(4-Methoxyphenyl)-1,4-diazepane-1-carbonyl]-6-methyl-N-(1-methylcyclopropyl)furo[2,3-d]pyrimidin-4-amine] | 0.1 to 1 µM
Cc1oc2ncnc(NC3(C)CC3)c2c1C(=O)N1CCC(c2ccn(C(C)C)n2)CC1 [Example 781, 6-Methyl-N-(1-methylcyclopropyl)-5-{4-[1-(propan-2-yl)-1H-pyrazol-3-yl]piperidine-1-carbonyl}furo[2,3-d]pyrimidin-4-amine] | 0.01 to 0.1 µM
Cc1oc2ncnc(NC3(C)CC3)c2c1C(=O)N1CCC(Oc2ccc(F)cc2)C1 (stereo not drawn) [Example 399, 5-[3-(4-Fluorophenoxy)pyrrolidine-1-carbonyl]-6-methyl-N-(1-methylcyclopropyl)furo[2,3-d]pyrimidin-4-amine] | 0.01 to 0.1 µM
Cc1cc(NC(=O)c2c(C)oc3ncnc(NC4(C)CC4)c23)no1 [Example 142, 6-Methyl-N-(5-methyl-1,2-oxazol-3-yl)-4-[(1-methylcyclopropyl)amino]furo[2,3-d]pyrimidine-5-carboxamide] | 0.01 to 0.1 µM
COc1ccc(C2CCN(C(=O)c3c(C)oc4ncnc(NC5(C)CC5)c34)CC2)nc1F [Example 530, 5-[4-(6-Fluoro-5-methoxypyridin-2-yl)piperidine-1-carbonyl]-6-methyl-N-(1-methylcyclopropyl)furo[2,3-d]pyrimidin-4-amine] | 0.01 to 0.1 µM
Cc1oc2ncnc(NC3(C)CC3)c2c1C(=O)NCc1ccc(OC(F)(F)F)cc1 [Example 722, 6-Methyl-4-[(1-methylcyclopropyl)amino]-N-{[4-(trifluoromethoxy)phenyl]methyl}furo[2,3-d]pyrimidine-5-carboxamide] | 0.01 to 0.1 µM
COc1cnc(N2CCN(C(=O)c3c(C)oc4ncnc(NC5(C)CC5)c34)CC2)nc1 [Example 327, 5-[4-(5-Methoxypyrimidin-2-yl)piperazine-1-carbonyl]-6-methyl-N-(1-methylcyclopropyl)furo[2,3-d]pyrimidin-4-amine] | 0.01 to 0.1 µM
Cc1oc2ncnc(NC3(C)CC3)c2c1C(=O)NCc1ccnc(C2CC2)n1 [Example 689, N-[(2-Cyclopropylpyrimidin-4-yl)methyl]-6-methyl-4-[(1-methylcyclopropyl)amino]furo[2,3-d]pyrimidine-5-carboxamide] | 0.01 to 0.1 µM
COc1cccc(CNC(=O)c2c(C)oc3ncnc(NC4(C)CC4)c23)n1 [Example 53, N-[(6-Methoxypyridin-2-yl)methyl]-6-methyl-4-[(1-methylcyclopropyl)amino]furo[2,3-d]pyrimidine-5-carboxamide] | 0.01 to 0.1 µM
Cc1oc2ncnc(NC3(C)CC3)c2c1C(=O)NC(C)C1CC1 (stereo not drawn) [Example 400, N-(1-Cyclopropylethyl)-6-methyl-4-[(1-methylcyclopropyl)amino]furo[2,3-d]pyrimidine-5-carboxamide] | 0.01 to 0.1 µM
Cc1oc2ncnc(NC3(C)CC3)c2c1C(=O)N1Cc2cnc(C(F)(F)F)nc2C1 [Example 36, 6-Methyl-N-(1-methylcyclopropyl)-5-[2-(trifluoromethyl)-5H,6H,7H-pyrrolo[3,4-d]pyrimidine-6-carbonyl]furo[2,3-d]pyrimidin-4-amine] | 0.1 to 1 µM
Cc1oc2ncnc(NC3(C)CC3)c2c1C(=O)N(C)Cc1cccc(F)c1 [Example 250, N-[(3-Fluorophenyl)methyl]-N,6-dimethyl-4-[(1-methylcyclopropyl)amino]furo[2,3-d]pyrimidine-5-carboxamide] | 0.01 to 0.1 µM
